Reference: US9643941B2, “2,2′-tandem dithiazole compound, preparation method therefor, and use thereof” (SHANGHAI INSTITUTE OF MATERIA MEDICA, CHINESE ACADEMY OF …, priority 2014, dated 2017)
Where two headings read alike, the source gives them in different places.

Assays:
Human source HDAC4 = Human source HDAC4 (Homo sapiens, UniProt P56524); assay: Inhibition activity against histone deacetylase 4 (fluorescence, AMC substrate); assay type: biochemical
Procedure: The test was carried out to show the inhibition activity of the compounds in this patent application against human source histone deacetylases 1, 3, 4, 6.
(§1) 2. Materials for the Test: • Human source HDAC1, HDAC3, HDAC4, and HDAC6 were obtained by the Group of Doctor LI Jia in Shanghai Institute of Materia Medica by using the baculovirus expression system and purifying. • Substrate: HDAC1, 3, 4: Ac-Lys-Tyr-Lys (Ac)-AMC; • HDAC6: Boc-lys (Ac)-AMC • ∠All were purchased from GL Biochem (Shanghai) Ltd.;
(§2) Enzyme activity was measured in 96-well or 384-well flat-bottom microplates using fluorescence detection. […] The initial reaction speed was calculated by detecting the changes of the fluorescence signal over time.
(§3) Sample treatment: The sample was dissolved in DMSO and stored at low temperature.
(§4) Illustration about the data processing and the result: In the first screening, the activity of the sample was tested at a single concentration, e.g., 20 μg/ml. […] The bottom and top of the fitting curve were set to 0 and 100 for the most inhibitor screening models.

[1] = tested on: human source multiple myeloma cell line 8266; assay: Anti-tumor activity test in cellular level (MTT); conditions: for IC50: Homo sapiens, Multiple myeloma cell, 72 h, read-out: IC50 on human multiple myeloma cell line 8266
Procedure: Tetrazolium salts (MTT) colorimetry was used, the analytic method is based on the metabolic reduction of 3-(4,5-dimethyl-2-thiazolyl)-2,5-diphenyltetrazolium bromide (MTT). The NADP-related dehydrogenase existing in the mitochondria of living cells can reduce the yellow MTT to insoluble bluish violet Formazan, but the enzyme is disappeared in dead cells and MTT cannot be reduced. The optical density was measured at a wavelength of 550/690 nm using a microplate reader after Formazan was dissolved in DMSO.
The cell viability was measured by MTT assay. Cells in logarithmic growth phase were digested with 0.05% trypsin and cell numbers were counted, then 100 μL was inoculated in 96-well plate at a cell density of 2.0×10^3/well, and the plate was placed in an incubator with 5% CO2 at 37° C. overnight. Six concentration gradients were set up for each compound and three wells were set for each concentration. The compound of each concentration was added to the corresponding wells, and incubated at 37° C. in an incubator with 5% CO2 for 72 hours, and then 20 μL of 5 mg/mL MTT was added to each well. After incubation for 3 hours at 37° C., the supernatant was discarded, the remained was added with 100 μL of DMSO to be dissolved, the absorbing value was measured at the light of 550 nm (L1) using a SpectraMAX 340, and the reference wavelength was 690 nm (L2). The value of (L1-L2) was plotted against the concentration of inhibiting agent, and the IC50 was obtained by fitting the formula.
Illustration about the data processing and the result: in the first screening, the activity of the sample was tested at a single concentration, e.g., 20 μg/ml. […] The bottom and top of the fitting curve were set to 0 and 100 for the most inhibitor screening models.

EAE mouse model = assay: Drug efficacy in EAE mouse model; assay type: in vivo
Procedure: The activity of the compound as a histone deacetylase inhibitor in the treatment of EAE was tested by drug efficacy tests for compounds in the EAE mouse model.
Antigen MOG35-55 ([…]) was added with complete Freund's adjuvant (comprising 5 mg/ml of inactivated Mycobacterium tuberculosis) to be emulsified. 8-week aged female C57BL/6 mouse was injected subcutaneously with 200 μg of emulsified MOG35-55 antigen, while 200 ng of pertussis toxin was injected into each mouse. The day of induction was day 0. On day 2, 200 ng of pertussis toxin was further injected to each mouse. The symptoms of the mice were scored and recorded daily. The scoring rules were as follows,
0 point: normal, asymptomatic
3 points: the mouse was paralysis of hind limbs, and the mouse was loss of mobility.
4 points: the mouse was weakness or paralysis of forelimbs.
5 points: the mouse was dead or dying
2. Materials for the Test: • EAE mouse: Shanghai Slac Laboratory Animal Co., Ltd.; • Antigen MOG35˜55: GL Biochem (Shanghai) Ltd.;
The drug was directly added with the CMC—Na, ground and ultrasonic suspended into a uniform state. The dose was 10 mg/kg, twice a day by intragastric administration. The control group was directly administrated with PBS.

Human source HDAC3 = Human source HDAC3 (Homo sapiens, UniProt O15379); assay: Inhibition activity against histone deacetylase 3 (fluorescence, AMC substrate); assay type: biochemical; conditions: IC50 ± SD/SE
Human source HDAC3, sequence (O15379 whole entry): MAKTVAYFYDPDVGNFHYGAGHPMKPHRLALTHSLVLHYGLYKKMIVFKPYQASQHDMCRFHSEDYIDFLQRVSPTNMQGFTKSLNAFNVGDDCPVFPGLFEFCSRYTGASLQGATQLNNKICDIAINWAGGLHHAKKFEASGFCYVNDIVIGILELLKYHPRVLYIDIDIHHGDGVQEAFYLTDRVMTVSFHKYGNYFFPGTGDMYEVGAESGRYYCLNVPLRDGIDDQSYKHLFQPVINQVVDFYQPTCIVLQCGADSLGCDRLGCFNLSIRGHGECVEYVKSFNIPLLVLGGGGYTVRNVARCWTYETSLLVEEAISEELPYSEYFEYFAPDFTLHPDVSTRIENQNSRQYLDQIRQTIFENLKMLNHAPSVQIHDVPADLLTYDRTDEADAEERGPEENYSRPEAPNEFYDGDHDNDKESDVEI
Human source HDAC3, sequence (Q9Y618 395-489 partner limits assumed): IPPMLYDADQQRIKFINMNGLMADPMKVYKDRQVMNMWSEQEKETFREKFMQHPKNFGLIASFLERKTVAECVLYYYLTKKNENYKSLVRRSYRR
Procedure: as §1, §2, §3, §4

Human source HDAC6 = molecular target: T1, Human source HDAC6 (Homo sapiens, UniProt Q9UBN7); assay: Inhibition activity against histone deacetylase 6 (fluorescence, AMC substrate); assay type: biochemical; conditions: for IC50: IC50 ± SD/SE
T1 sequence (Q9UBN7 1-1215): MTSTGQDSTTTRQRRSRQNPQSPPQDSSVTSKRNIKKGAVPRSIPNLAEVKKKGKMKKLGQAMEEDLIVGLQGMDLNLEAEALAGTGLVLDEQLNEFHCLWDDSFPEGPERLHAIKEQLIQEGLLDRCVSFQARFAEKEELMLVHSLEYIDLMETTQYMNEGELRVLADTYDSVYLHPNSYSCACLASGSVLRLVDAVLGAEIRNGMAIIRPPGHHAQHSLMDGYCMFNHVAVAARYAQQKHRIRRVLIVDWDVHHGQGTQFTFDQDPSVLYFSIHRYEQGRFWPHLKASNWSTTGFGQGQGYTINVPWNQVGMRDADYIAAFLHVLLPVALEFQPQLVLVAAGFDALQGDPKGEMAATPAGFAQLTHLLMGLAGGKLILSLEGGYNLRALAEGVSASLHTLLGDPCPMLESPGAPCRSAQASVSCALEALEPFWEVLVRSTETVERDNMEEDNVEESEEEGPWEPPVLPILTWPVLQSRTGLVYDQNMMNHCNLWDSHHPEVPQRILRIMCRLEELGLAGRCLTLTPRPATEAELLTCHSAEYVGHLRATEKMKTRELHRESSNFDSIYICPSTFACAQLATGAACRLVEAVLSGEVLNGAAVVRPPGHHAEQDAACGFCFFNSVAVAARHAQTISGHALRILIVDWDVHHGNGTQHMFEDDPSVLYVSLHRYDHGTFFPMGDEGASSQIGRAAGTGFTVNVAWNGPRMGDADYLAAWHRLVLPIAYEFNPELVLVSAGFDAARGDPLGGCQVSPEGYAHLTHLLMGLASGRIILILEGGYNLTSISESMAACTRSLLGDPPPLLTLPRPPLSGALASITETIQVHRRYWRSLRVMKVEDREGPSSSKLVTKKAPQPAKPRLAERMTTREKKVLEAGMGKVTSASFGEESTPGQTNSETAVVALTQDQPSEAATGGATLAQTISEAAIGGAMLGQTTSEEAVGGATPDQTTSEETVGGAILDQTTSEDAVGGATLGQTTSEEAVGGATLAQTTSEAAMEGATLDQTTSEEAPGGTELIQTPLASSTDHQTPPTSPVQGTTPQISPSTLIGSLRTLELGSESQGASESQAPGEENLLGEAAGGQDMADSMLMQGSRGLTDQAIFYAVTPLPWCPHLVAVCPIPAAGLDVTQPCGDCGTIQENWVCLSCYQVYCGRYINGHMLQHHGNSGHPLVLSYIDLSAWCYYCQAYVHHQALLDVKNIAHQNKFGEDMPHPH
Procedure: as §1, §2, §3, §4

Human source HDAC1 = Human source HDAC1 (Homo sapiens, UniProt Q13547); assay: Inhibition activity against histone deacetylase 1 (fluorescence, AMC substrate); assay type: biochemical; conditions: IC50 ± SD/SE
Human source HDAC1, sequence (Q13547 whole entry): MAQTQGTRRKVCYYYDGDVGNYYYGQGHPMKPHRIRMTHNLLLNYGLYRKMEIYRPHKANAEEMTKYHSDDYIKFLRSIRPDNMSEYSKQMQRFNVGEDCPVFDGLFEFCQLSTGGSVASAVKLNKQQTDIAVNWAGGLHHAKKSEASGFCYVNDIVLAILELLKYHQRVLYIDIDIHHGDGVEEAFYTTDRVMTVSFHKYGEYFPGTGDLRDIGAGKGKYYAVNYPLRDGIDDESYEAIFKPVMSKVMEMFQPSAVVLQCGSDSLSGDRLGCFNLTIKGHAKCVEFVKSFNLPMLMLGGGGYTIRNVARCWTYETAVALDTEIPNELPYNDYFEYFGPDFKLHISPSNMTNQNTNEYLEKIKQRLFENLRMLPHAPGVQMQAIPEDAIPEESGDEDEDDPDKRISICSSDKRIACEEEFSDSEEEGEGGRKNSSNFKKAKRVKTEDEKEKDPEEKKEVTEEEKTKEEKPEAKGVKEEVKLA
Procedure: as §1, §2, §3, §4

[2] = IC50 ± SD/SE, read-out: IC50 HDAC4

Human source HDAC4, sequence (P56524 whole entry): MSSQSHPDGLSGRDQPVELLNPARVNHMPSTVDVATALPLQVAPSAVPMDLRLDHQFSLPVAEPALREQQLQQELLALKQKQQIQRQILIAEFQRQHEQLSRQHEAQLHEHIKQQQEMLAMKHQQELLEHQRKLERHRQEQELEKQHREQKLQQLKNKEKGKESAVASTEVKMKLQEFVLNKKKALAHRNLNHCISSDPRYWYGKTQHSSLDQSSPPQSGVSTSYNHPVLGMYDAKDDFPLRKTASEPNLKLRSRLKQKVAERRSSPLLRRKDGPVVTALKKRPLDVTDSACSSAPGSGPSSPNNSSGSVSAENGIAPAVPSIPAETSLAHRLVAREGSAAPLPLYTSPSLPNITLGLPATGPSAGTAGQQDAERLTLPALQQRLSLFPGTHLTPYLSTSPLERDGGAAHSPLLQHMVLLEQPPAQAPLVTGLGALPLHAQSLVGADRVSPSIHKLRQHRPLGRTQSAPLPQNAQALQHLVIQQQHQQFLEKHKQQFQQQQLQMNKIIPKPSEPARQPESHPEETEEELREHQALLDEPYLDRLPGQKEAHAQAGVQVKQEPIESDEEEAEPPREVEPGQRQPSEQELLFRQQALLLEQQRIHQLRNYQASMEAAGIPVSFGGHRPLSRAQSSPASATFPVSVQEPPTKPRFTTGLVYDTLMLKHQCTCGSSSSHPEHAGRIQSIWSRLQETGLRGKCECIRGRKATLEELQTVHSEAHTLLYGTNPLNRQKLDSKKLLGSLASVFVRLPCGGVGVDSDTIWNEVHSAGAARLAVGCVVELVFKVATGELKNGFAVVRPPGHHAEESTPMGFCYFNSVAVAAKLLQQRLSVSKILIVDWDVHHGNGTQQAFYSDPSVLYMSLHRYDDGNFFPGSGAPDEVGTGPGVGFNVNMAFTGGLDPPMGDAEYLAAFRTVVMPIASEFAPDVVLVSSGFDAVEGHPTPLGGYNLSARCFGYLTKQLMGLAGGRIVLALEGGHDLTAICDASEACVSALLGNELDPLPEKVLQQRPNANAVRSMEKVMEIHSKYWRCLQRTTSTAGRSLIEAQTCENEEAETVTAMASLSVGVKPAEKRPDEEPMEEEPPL

SMILES | IC50 (Human source HDAC4; [2]) [nM] | IC50 (Human source HDAC4; read-out: IC50 against HDAC4) [nM] | IC50 [1] [nM] | incidence of EAE model mice (EAE mouse model; 10 mg/kg twice a day, intragastric) | therapeutic effect on the clinical symptoms of EAE model mice (EAE mouse model; 10 mg/kg twice a day, intragastric, clinical score (the FIGURE)) | Incidence number/total number (EAE mouse model; EAE mice, 10 mg/kg twice a day, intragastric) | disease severity versus solvent control group (EAE mouse model; P<0.01) | IC50 (Human source HDAC3) [nM] | activity against HDAC6 on changing trifluoroacetyl ketone to hydrazone (Human source HDAC6) | IC50 (Human source HDAC6) [nM] | IC50 (Human source HDAC1) [nM] | increase of activity at the cellular level compared to CFH367-C ([1]; cell line 8266)
O=C(NCCCCC(=O)C(F)(F)F)c1nc(-c2nccs2)sc1C1CC1 [HD 1] | 20 | ~20 | 333 ± 11 | Effectively Reduce the Incidence | good therapeutic effect | 3/6 | significantly lower |  |  |  |  | 
O=C(NCCCCC(=O)C(F)(F)F)c1nc(-c2nc3c(s2)CCCC3)sc1C1CC1 [HD 3] | 20 |  | 240 ± 21 |  |  |  |  |  |  |  |  | 
CC(C)Cc1sc(-c2nccs2)nc1C(=O)NCCCCC(=O)C(F)(F)F [HD 6] | 40 |  | 457 ± 12 |  |  |  |  |  |  |  |  | 
CC(=O)N/N=C(\CCCCNC(=O)c1nc(-c2nccs2)sc1C1CC1)C(F)(F)F [HD 37] | 160 ± 10 |  | 2140 ± 22 |  |  |  |  | 350 | can be improved | 80 ± 10 | 180 ± 30 | 
O=C(CO)N/N=C(/CCCCNC(=O)c1nc(-c2nccs2)sc1C1CC1)C(F)(F)F [HD 46] | 450 ± 30 |  | 117 |  |  |  |  | 400 ± 10 | can be improved | 350 ± 10 | 500 ± 50 | about 10 times
CCc1sc(-c2nccs2)nc1C(=O)NCCCCC(=O)C(F)(F)F [HD 53] | 40 |  |  |  |  |  |  | 50 |  | 40 | 50 | 
O=C(NCCCCC(=O)C(F)(F)F)c1nc(-c2nccs2)sc1Cc1ccccc1 [HD 54] | 70 |  |  |  |  |  |  | 60 |  | 60 | 70 ± 10 | 
Cc1cnc(-c2nc(C(=O)NCCCCC(=O)C(F)(F)F)c(C3CC3)s2)s1 [HD 55] | 70 |  |  |  |  |  |  |  |  | 20 |  | 
